Experimental findings from DBAASP are described below.

Among the test systems are Staphylococcus aureus; Escherichia coli JM109; Pseudomonas aeruginosa.
Holding throughout (test): ≥ marks a high value that may be exact or a test limit, other limits are often not marked, values filed in µg/mL are converted to µM
For assay [1], the system named is Staphylococcus aureus FDA 209P.
Assay [2] has as its system Escherichia coli ATCC 25922.
For assay [3], the system named is Streptococcus gordonii Challis DL1.
In assay [4] the test system is Streptococcus sanguinis NY101.
The subject of assay [5] is Streptococcus mutans UA159.
Assay [6] deals with Pseudomonas aeruginosa PAK.
Assay [7] deals with Streptococcus mitis ATCC 903.
In assay [8] the test system is Acholeplasma laidlawii A-EF22.
The test system of assay [9] is Klebsiella aerogenes ATCC 13048.
For assay [10], the system named is Staphylococcus aureus ATCC 29231.
The test system of assay [11] is Candida albicans ATCC 10231.
In assay [12] the test system is Pseudomonas aeruginosa PA14.
The test system of assay [13] is Staphylococcus aureus ATCC 6538P.

Each structure is given as a SMILES string. In brackets after ≈: the same amount, converted by molar mass. Some results are limits rather than exact numbers.

For the molecule `CC[C@H](C)[C@H](NC(=O)CNC(=O)[C@H](CCCCN)NC(=O)[C@@H](NC(=O)CNC(=O)[C@H](CCCCN)NC(=O)[C@@H](NC(=O)[C@@H](NC(=O)[C@H](CCSC)NC(=O)[C@H](CC(N)=O)NC(=O)[C@H](CCCCN)NC(=O)[C@@H](NC(=O)CNC(=O)[C@H](CCCCN)NC(=O)CNC(=O)[C@H](C)NC(=O)[C@H](Cc1ccccc1)NC(=O)[C@H](CCCCN)NC(=O)[C@H](CO)NC(=O)[C@H](Cc1ccccc1)NC(=O)[C@H](CC(C)C)NC(=O)CN)[C@@H](C)CC)[C@@H](C)CC)[C@@H](C)CC)[C@@H](C)CC)C(=O)NCC(=O)N[C@@H](CCCCN)C(=O)N[C@@H](CCC(=O)O)C(=O)N[C@H](C(=O)NCC(=O)N[C@@H](CCSC)C(=O)N[C@@H](CC(=O)O)C(=O)N[C@H](C(=O)N[C@H](C(=O)N[C@@H](CCCN=C(N)N)C(=O)N[C@H](C(=O)NCC(=O)N[C@H](C(=O)N[C@@H](CC(=O)O)C(=O)N[C@H](C(=O)N[C@@H](C)C(=O)NCC(=O)N[C@H]1CSSC[C@@H](C(=O)O)NC(=O)[C@H](CCC(=O)O)NC(=O)CNC(=O)[C@H](CCCCN)NC(=O)[C@H]([C@@H](C)CC)NC(=O)[C@H](CCCCN)NC1=O)C(C)C)[C@@H](C)CC)[C@@H](C)O)[C@@H](C)CC)C(C)C)C(C)C` [GLFSKFAGKGIKNMIIKGIKGIGKEVGMDVIRTGIDVAGCKIKGEC], the MIC worked out at 3 µM (≈ 14.3 µg/mL) in assay [1] and 1.7 µM (≈ 8.13 µg/mL) in [2].
Take `CC[C@H](C)[C@H](NC(=O)[C@H](Cc1ccccc1)NC(=O)CNC(=O)CNC(=O)[C@H](CO)NC(=O)[C@H](Cc1cnc[nH]1)NC(=O)[C@H](CC(C)C)NC(=O)[C@H](CC(C)C)NC(=O)[C@H](Cc1cnc[nH]1)NC(=O)[C@H](Cc1cnc[nH]1)NC(=O)[C@H](CC(C)C)NC(=O)[C@H](CCCCN)NC(=O)[C@H](CCCCN)NC(=O)[C@H](CC(C)C)NC(=O)[C@H](CC(C)C)NC(=O)[C@H](CCCN=C(N)N)NC(=O)[C@H](CCCN=C(N)N)NC(=O)[C@H](Cc1c[nH]c2ccccc12)NC(=O)[C@@H](N)CCCN=C(N)N)C(=O)N[C@@H](CCCCN)C(=O)N[C@@H](Cc1cnc[nH]1)C(=O)N[C@@H](Cc1ccccc1)C(=O)N[C@H](C(=O)N[C@@H](Cc1cnc[nH]1)C(=O)N[C@@H](CCCN=C(N)N)C(=O)N[C@@H](Cc1ccccc1)C(N)=O)[C@@H](C)CC` [RWRRLLKKLHHLLHSGGFIKHFIHRF]: the MIC in assay [3] amounted to 4.8 µM (≈ 16 µg/mL); in assay [4], 9.6 µM (≈ 32 µg/mL); against Staphylococcus aureus, 9.6 µM (≈ 32 µg/mL); in assay [5], 2.4 µM (≈ 8 µg/mL); in [6], 9.6 µM (≈ 32 µg/mL); in assay [7], 9.6 µM (≈ 32 µg/mL).
As to `CC[C@H](C)[C@H](NC(=O)CNC(=O)[C@H](CCCCN)NC(=O)[C@@H](NC(=O)CNC(=O)[C@H](CCCCN)NC(=O)[C@@H](NC(=O)[C@@H](NC(=O)[C@H](CC(C)C)NC(=O)[C@H](CC(=O)O)NC(=O)[C@H](CCCCN)NC(=O)[C@@H](NC(=O)CNC(=O)[C@H](CCCCN)NC(=O)CNC(=O)[C@H](C)NC(=O)[C@H](Cc1ccccc1)NC(=O)[C@H](CCCCN)NC(=O)[C@H](CO)NC(=O)[C@H](Cc1ccccc1)NC(=O)[C@@H](NC(=O)CN)[C@@H](C)CC)[C@@H](C)CC)[C@@H](C)CC)[C@@H](C)CC)C(C)C)C(=O)N[C@@H](C)C(=O)N[C@@H](CCCCN)C(=O)N[C@@H](CCC(=O)O)C(=O)N[C@@H](C)C(=O)NCC(=O)N[C@@H](CCSC)C(=O)N[C@@H](CC(=O)O)C(=O)N[C@H](C(=O)N[C@H](C(=O)N[C@@H](CCCN=C(N)N)C(=O)N[C@H](C(=O)NCC(=O)N[C@H](C(=O)N[C@@H](CC(=O)O)C(=O)N[C@H](C(=O)N[C@@H](C)C(=O)NCC(=O)N[C@H]1CSSC[C@@H](C(=O)O)NC(=O)[C@H](CCC(=O)O)NC(=O)CNC(=O)[C@H](CCCCN)NC(=O)[C@H]([C@@H](C)CC)NC(=O)[C@H](CCCCN)NC1=O)[C@@H](C)CC)[C@@H](C)CC)[C@@H](C)O)[C@@H](C)CC)C(C)C` [GIFSKFAGKGIKDLIIKGVKGIAKEAGMDVIRTGIDIAGCKIKGEC], the MIC was 4.9 µM (≈ 23.3 µg/mL) in assay [1] and 3.2 µM (≈ 15.2 µg/mL) in assay [2].
Take `CC(C)C[C@H](NC(=O)[C@H](CC(C)C)NC(=O)[C@H](CCCCN)NC(=O)[C@H](CC(C)C)NC(=O)[C@H](CC(C)C)NC(=O)[C@H](CC(C)C)NC(=O)[C@@H](N)CCCCN)C(=O)N[C@@H](CCCCN)C(=O)O` [KLLLKLLK]: the minimum inhibitory concentration (MIC) in [8] is no less than 100 µM.
On to `CC[C@H](C)[C@H](NC(=O)[C@H](CCCCN)NC(=O)[C@H](Cc1c[nH]c2ccccc12)NC(=O)[C@H](CC(C)C)NC(=O)[C@@H](NC(=O)[C@H](CCCCN)NC(=O)[C@H](Cc1c[nH]c2ccccc12)NC(=O)[C@@H](N)CC(C)C)[C@@H](C)CC)C(=O)N[C@@H](Cc1c[nH]c2ccccc12)C(=O)N[C@@H](CCCN=C(N)N)C(=O)N[C@H](C(=O)N[C@@H](CC(C)C)C(=O)N[C@@H](CCCCN)C(=O)N[C@@H](CC(N)=O)C(=O)N[C@@H](Cc1c[nH]c2ccccc12)C(=O)N[C@@H](CCCN=C(N)N)C(=O)O)C(C)C` [LWKILWKIWRVLKNWR], for which the MIC was no less than 57.2 µM in [9], 28.6 µM (≈ 64 µg/mL) in assay [10], greater than 57.2 µM in assay [11] and no less than 57.2 µM in [12].
Take `CC[C@H](C)[C@H](NC(=O)[C@H](Cc1ccccc1)NC(=O)CNC(=O)CNC(=O)CNC(=O)[C@H](Cc1ccccc1)NC(=O)[C@H](Cc1c[nH]c2ccccc12)NC(=O)[C@H](CCCN=C(N)N)NC(=O)[C@H](Cc1c[nH]c2ccccc12)NC(=O)[C@H](CCCN=C(N)N)NC(=O)[C@H](Cc1c[nH]c2ccccc12)NC(=O)[C@@H](N)CCCN=C(N)N)C(=O)N[C@@H](CCCCN)C(=O)N[C@@H](Cc1cnc[nH]1)C(=O)N[C@@H](Cc1ccccc1)C(=O)N[C@H](C(=O)N[C@@H](Cc1cnc[nH]1)C(=O)N[C@@H](CCCN=C(N)N)C(=O)N[C@@H](Cc1ccccc1)C(N)=O)[C@@H](C)CC` [RWRWRWFGGGFIKHFIHRF]: the MIC came out at 12.4 µM (≈ 32 µg/mL) in assay [3]; 12.4 µM (≈ 32 µg/mL) in assay [4]; 12.4 µM (≈ 32 µg/mL) against Staphylococcus aureus; 3.09 µM (≈ 8 µg/mL) in assay [5]; 24.1 µM (≈ 62.5 µg/mL) in [6]; 12.4 µM (≈ 32 µg/mL) in assay [7].
`CC[C@H](C)[C@H](NC(=O)[C@H](C)NC(=O)[C@H](CC(C)C)NC(=O)[C@H](CC(C)C)NC(=O)[C@H](CC(C)C)NC(=O)[C@H](C)N)C(=O)N[C@@H](CCCN=C(N)N)C(=O)N[C@@H](CCCN=C(N)N)C(=O)N[C@@H](CCCN=C(N)N)C(N)=O` [ALLLAIRRR]: the MIC against Staphylococcus aureus was 29.6 µM (≈ 32 µg/mL); in the assay on Escherichia coli JM109, 1.85 µM (≈ 2 µg/mL); in assay [13], 1.85 µM (≈ 2 µg/mL); in the assay with Pseudomonas aeruginosa it was 2.77 µM (≈ 3 µg/mL).
Take `CC[C@H](C)[C@H](NC(=O)[C@H](C)NC(=O)[C@H](CC(C)C)NC(=O)[C@H](CC(C)C)NC(=O)[C@H](Cc1cnc[nH]1)NC(=O)[C@H](C)NC(=O)[C@H](C)NC(=O)[C@H](CC(C)C)NC(=O)[C@@H](N)CC(C)C)C(=O)NCC(=O)N[C@@H](CCCN=C(N)N)C(=O)N[C@@H](CCCN=C(N)N)C(N)=O` [LLAAHLLAIGRR]: the MIC is 49.1 µM (≈ 64 µg/mL) with Staphylococcus aureus, no less than 36.8 µM against Escherichia coli JM109 and 7.67 µM (≈ 9.99 µg/mL) in assay [13].

A word on the MIC: it is the smallest concentration in the dilution series that meets the test's criterion for growth inhibition.
